Counter-ions that a name gives are not always drawn.
The compounds below were run against LRRK2 (G2019S mutation, GST-LRRK2 (amino acids 970-2527)) (Homo sapiens (Human), UniProt Q5S007, G2019S) (assay: LRRK2 Km ATP LanthaScreen Assay). Details: mean IC50 of several test results.
Type: biochemical
Excerpt: Unless otherwise noted, all LRRK2 IC50 data presented in tables refers to the LRRK2 Km ATP LanthaScreen™ Assay that is described in the Biological Assay section.
The data presented for the Km ATP LanthaScreen™ Assay represents mean IC50 values based on several test results and may have reasonable deviations depending on the specific conditions and reagents used. Reagents for the LRRK2 Km ATP LanthaScreen™ Assay were purchased from Life Technologies Corporation.
LRRK2 Km ATP LanthaScreen™ Assay
a) 400 nl of a 1:2.15 serial dilution of test compound (98 μM top assay concentration) is spotted via Labcyte Echo to certain wells in a 384 well black, untreated plate. Control wells contain 400 nl of either DMSO or 400 nl of a known inhibitor in DMSO.
c) A 30 minute room temperature incubation is followed by addition of 10 μl of 800 nM fluorescein labeled LRRKtide peptide substrate and 186 μM ATP solution in 1× assay buffer to all wells.
d) After a 60 minute room temperature incubation, 20 μl of TR-FRET Dilution Buffer (Invitrogen PV3756B) containing 4 nM Tb-labeled anti-phospho LRRKtide antibody and 20 mM EDTA is added to all wells.
e) Plates are incubated at room temperature for 1 hour and read on an Envision™ multi-mode plate reader with LanthaScreen™ settings. Results are analysed using Assay Data Analyzer.

LRRK2 (G2019S mutation, GST-LRRK2 (amino acids 970-2527)), sequence (Q5S007 970-2527 G2019S): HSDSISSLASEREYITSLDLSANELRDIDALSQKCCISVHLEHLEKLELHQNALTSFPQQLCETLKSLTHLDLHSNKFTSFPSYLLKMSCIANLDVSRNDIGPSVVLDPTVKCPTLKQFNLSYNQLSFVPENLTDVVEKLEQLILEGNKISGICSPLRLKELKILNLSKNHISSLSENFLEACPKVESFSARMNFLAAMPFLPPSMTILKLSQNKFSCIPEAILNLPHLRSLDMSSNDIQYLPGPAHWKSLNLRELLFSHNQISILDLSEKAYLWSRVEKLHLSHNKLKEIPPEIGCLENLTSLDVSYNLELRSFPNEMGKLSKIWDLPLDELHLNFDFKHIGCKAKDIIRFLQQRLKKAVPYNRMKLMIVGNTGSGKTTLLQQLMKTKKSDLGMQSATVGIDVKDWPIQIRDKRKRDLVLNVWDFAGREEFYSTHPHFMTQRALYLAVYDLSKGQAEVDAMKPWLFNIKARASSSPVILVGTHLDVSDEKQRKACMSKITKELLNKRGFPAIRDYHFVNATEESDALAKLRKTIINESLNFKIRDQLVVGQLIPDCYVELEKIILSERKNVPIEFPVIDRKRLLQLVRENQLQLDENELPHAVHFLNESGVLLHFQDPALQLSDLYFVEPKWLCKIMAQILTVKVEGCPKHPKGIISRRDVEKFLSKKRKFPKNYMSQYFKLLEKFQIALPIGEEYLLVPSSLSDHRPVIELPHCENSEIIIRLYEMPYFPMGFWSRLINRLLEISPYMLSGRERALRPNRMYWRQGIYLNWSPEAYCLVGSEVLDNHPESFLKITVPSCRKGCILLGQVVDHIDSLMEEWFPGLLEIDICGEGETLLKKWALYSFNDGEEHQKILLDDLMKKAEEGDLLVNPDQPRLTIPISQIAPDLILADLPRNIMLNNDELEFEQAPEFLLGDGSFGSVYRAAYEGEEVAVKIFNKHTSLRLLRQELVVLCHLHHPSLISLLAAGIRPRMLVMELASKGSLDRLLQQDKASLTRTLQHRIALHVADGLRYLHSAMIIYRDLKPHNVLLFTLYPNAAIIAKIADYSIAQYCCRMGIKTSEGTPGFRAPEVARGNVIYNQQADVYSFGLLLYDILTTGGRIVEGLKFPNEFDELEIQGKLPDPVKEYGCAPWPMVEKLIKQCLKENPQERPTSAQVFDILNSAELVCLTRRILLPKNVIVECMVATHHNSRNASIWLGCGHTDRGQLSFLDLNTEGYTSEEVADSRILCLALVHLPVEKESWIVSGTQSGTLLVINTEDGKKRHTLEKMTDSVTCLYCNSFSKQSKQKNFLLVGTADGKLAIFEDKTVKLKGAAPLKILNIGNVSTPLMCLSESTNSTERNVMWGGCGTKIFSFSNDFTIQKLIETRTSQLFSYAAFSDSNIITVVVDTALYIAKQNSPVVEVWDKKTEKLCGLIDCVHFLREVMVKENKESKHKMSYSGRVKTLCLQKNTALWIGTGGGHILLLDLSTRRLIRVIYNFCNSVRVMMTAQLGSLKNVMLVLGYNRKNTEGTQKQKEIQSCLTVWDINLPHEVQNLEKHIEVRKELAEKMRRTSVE

Compared with `c1ccc2c(c1)cnn2-c1ccnc(N2CCOCC2)c1` [Example 2, 4-(4-(1H-indazol-1-yl)pyridin-2-yl)morpholine], `CC(C)Oc1ccc2cnn(-c3ccnc(N4CCOCC4)c3)c2c1` [Example 4, 4-(4-(6-isopropoxy-1H-indazol-1-yl)pyridin-2-yl)morpholine hydrochloride] is 5.2-fold lower in IC50: 633 nM for the first, 122 nM for the second. The second is the more potent here.

Going from `Cn1cc(-c2cc(F)c3cnn(-c4ccnc(N5CCOCC5)c4)c3c2)cn1` [Example 3, 4-(4-(4-fluoro-6-(1-methyl-1H-pyrazol-4-yl)-1H-indazol-1-yl)pyridin-2-yl)morpholine] to `CCn1cc(-c2ccc3cnn(-c4ccnc(N5CCOCC5)c4)c3c2)cn1` [Example 19, 4-(4-(6-(1-ethyl-1H-pyrazol-4-yl)-1H-indazol-1-yl)pyridin-2-yl)morpholine], the IC50 falls from 228 nM to 128 nM (1.8-fold). The second is the more potent here.

Going from `Cn1cncc1-c1ccc2cnn(-c3ccnc(N4CCOCC4)c3)c2c1` [Example 6, 4-(4-(6-(1-methyl-1H-imidazol-5-yl)-1H-indazol-1-yl)pyridin-2-yl)morpholine] to `c1cc(-n2ncc3ccc(-c4cn[nH]c4)cc32)cc(N2CCOCC2)n1` [Example 18, 4-(4-(6-(1H-pyrazol-4-yl)-1H-indazol-1-yl)pyridin-2-yl)morpholine], the IC50 falls from 119 nM to 73 nM (1.6-fold). The second is the more potent here.

`CN1CCN(c2cc(-n3ncc4ccc(-c5cnn(C)c5)cc43)ccn2)CC1` [Example 9, 6-(1-methyl-1H-pyrazol-4-yl)-1-(2-(4-methylpiperazin-1-yl)pyridin-4-yl)-1H-indazole] and `Cn1cc(-c2ccc3cnn(-c4ccnc(N5CCCC5)c4)c3c2)cn1` [Example 46, 6-(1-methyl-1H-pyrazol-4-yl)-1-(2-(pyrrolidin-1-yl)pyridin-4-yl)-1H-indazole] are within 1.5-fold of each other in IC50: 56 nM for the first, 74 nM for the second.

`CN1CCN(c2cc(-n3ncc4ccc(-c5cnn(C)c5)cc43)ccn2)CC1=O` [Example 10, 1-methyl-4-(4-(6-(1-methyl-1H-pyrazol-4-yl)-1H-indazol-1-yl)pyridin-2-yl)piperazin-2-one] and `Cn1cc(-c2ccc3cnn(-c4ccnc(N5CC[C@H](F)C5)c4)c3c2)cn1` [Example 13, (S)-1-(2-(3-fluoropyrrolidin-1-yl)pyridin-4-yl)-6-(1-methyl-1H-pyrazol-4-yl)-1H-indazole] are within 1.5-fold of each other in IC50: 126 nM for the first, 108 nM for the second.

First: Cn1cc(-c2ccc3cnn(-c4ccnc(N5CC(F)(F)C5)c4)c3c2)cn1 [Example 11, 1-(2-(3,3-difluoroazetidin-1-yl)pyridin-4-yl)-6-(1-methyl-1H-pyrazol-4-yl)-1H-indazole]
Second: Cn1cc(-c2ccc3cnn(-c4ccnc(N5CC(F)C5)c4)c3c2)cn1 [Example 14, 1-(2-(3-fluoroazetidin-1-yl)pyridin-4-yl)-6-(1-methyl-1H-pyrazol-4-yl)-1H-indazole]
The IC50 of the first is 1.5-fold higher: 224 nM for the first, 145 nM for the second.

Compared with `Cn1cc(-c2ccc3cnn(-c4ccnc(N5CCN(C(=O)OC(C)(C)C)CC5)c4)c3c2)cn1` [Example 15, tert-butyl 4-(4-(6-(1-methyl-1H-pyrazol-4-yl)-1H-indazol-1-yl)pyridin-2-yl)piperazine-1-carboxylate], `Cn1cc(-c2ccc3cnn(-c4ccnc(N5CCC(S(C)(=O)=O)CC5)c4)c3c2)cn1` [Example 16, 6-(1-methyl-1H-pyrazol-4-yl)-1-(2-(4-(methylsulfonyl)piperidin-1-yl)pyridin-4-yl)-1H-indazole] is 3.8-fold higher in IC50: 34 nM for the first, 128 nM for the second.

`CC(C)Oc1ccc2cnn(-c3ccnc(N4CCn5ccnc5C4)c3)c2c1` [Example 23, 7-(4-(6-isopropoxy-1H-indazol-1-yl)pyridin-2-yl)-5,6,7,8-tetrahydroimidazo[1,2-a]pyrazine] and `CC(C)Oc1ccc2cnn(-c3ccnc(N4CCN(C)C(=O)C4)c3)c2c1` [Example 31, 4-(4-(6-isopropoxy-1H-indazol-1-yl)pyridin-2-yl)-1-methylpiperazin-2-one] are within 1.5-fold of each other in IC50: 446 nM for the first, 443 nM for the second.

`CCc1nnc2n1CCN(c1cc(-n3ncc4ccc(OC(C)C)cc43)ccn1)C2` [Example 24, 3-ethyl-7-(4-(6-isopropoxy-1H-indazol-1-yl)pyridin-2-yl)-5,6,7,8-tetrahydro-[1,2,4]triazolo[4,3-a]pyrazine] and `CC(C)Oc1ccc2cnn(-c3ccnc(N4CCC4)c3)c2c1` [Example 26, 1-(2-(azetidin-1-yl)pyridin-4-yl)-6-isopropoxy-1H-indazole] are within 1.5-fold of each other in IC50: 435 nM for the first, 584 nM for the second.

`CC(C)Oc1ccc2cnn(-c3ccnc(N4CCOC(CCO)C4)c3)c2c1` (stereo not drawn) [Example 25, 2-(4-(4-(6-isopropoxy-1H-indazol-1-yl)pyridin-2-yl)morpholin-2-yl)ethanol] and `CC(C)Oc1ccc2cnn(-c3ccnc(N4CCO[C@@H](C)C4)c3)c2c1` [Example 28, (S)-4-(4-(6-isopropoxy-1H-indazol-1-yl)pyridin-2-yl)-2-methylmorpholine] are within 1.5-fold of each other in IC50: 412 nM for the first, 612 nM for the second.

Compared with `CC(C)Oc1ccc2cnn(-c3ccnc(N4CCN(CC5CCC5)CC4)c3)c2c1` [Example 27, 1-(2-(4-(cyclobutylmethyl)piperazin-1-yl)pyridin-4-yl)-6-isopropoxy-1H-indazole], `CC(C)Oc1ccc2cnn(-c3ccnc(N4CCN(CCO)CC4)c3)c2c1` [Example 39, 2-(4-(4-(6-isopropoxy-1H-indazol-1-yl)pyridin-2-yl)piperazin-1-yl)ethanol] is 1.9-fold lower in IC50: 362 nM for the first, 193 nM for the second. The second is the more potent here.

Compared with `CC(C)Oc1ccc2cnn(-c3ccnc(N4CCO[C@H](C)C4)c3)c2c1` [Example 29, (R)-4-(4-(6-isopropoxy-1H-indazol-1-yl)pyridin-2-yl)-2-methylmorpholine], `CC(C)Oc1ccc2cnn(-c3ccnc(N4CCC(O)C4)c3)c2c1` (stereo not drawn) [Example 34, 1-(4-(6-isopropoxy-1H-indazol-1-yl)pyridin-2-yl)pyrrolidin-3-ol] is 1.6-fold lower in IC50: 490 nM for the first, 307 nM for the second.

Compared with `CC(C)Oc1ccc2cnn(-c3ccnc(N4CC(C(C)(C)O)C4)c3)c2c1` [Example 30, 2-(1-(4-(6-isopropoxy-1H-indazol-1-yl)pyridin-2-yl)azetidin-3-yl)propan-2-ol], `CC(C)Oc1ccc2cnn(-c3ccnc(N4C[C@@H](C)O[C@@H](C)C4)c3)c2c1` [Example 32, cis-4-(4-(6-isopropoxy-1H-indazol-1-yl)pyridin-2-yl)-2,6-dimethylmorpholine] is 1.7-fold lower in IC50: 418 nM for the first, 245 nM for the second. The second is the more potent here.

Compared with `CC(C)Oc1ccc2cnn(-c3ccnc(N4CCN(c5ncccn5)CC4)c3)c2c1` [Example 33, 6-isopropoxy-1-(2-(4-(pyrimidin-2-yl)piperazin-1-yl)pyridin-4-yl)-1H-indazole], `CC(C)Oc1ccc2cnn(-c3ccnc(N4CCN(C)CC4)c3)c2c1` [Example 35, 6-isopropoxy-1-(2-(4-methylpiperazin-1-yl)pyridin-4-yl)-1H-indazole] is 1.8-fold lower in IC50: 326 nM for the first, 181 nM for the second.

`COC1CCCN(c2cc(-n3ncc4ccc(OC(C)C)cc43)ccn2)C1` (stereo not drawn) [Example 36, 6-isopropoxy-1-(2-(3-methoxypiperidin-1-yl)pyridin-4-yl)-1H-indazole] and `CC(C)Oc1ccc2cnn(-c3ccnc(N4CC[C@@H](F)C4)c3)c2c1` [Example 42, (R)-1-(2-(3-fluoropyrrolidin-1-yl)pyridin-4-yl)-6-isopropoxy-1H-indazole] are within 1.5-fold of each other in IC50: 596 nM for the first, 412 nM for the second.

Going from `CC(C)Oc1ccc2cnn(-c3ccnc(N4CCCC4)c3)c2c1` [Example 37, 6-isopropoxy-1-(2-(pyrrolidin-1-yl)pyridin-4-yl)-1H-indazole] to `CC(C)Oc1ccc2cnn(-c3ccnc(N4CCC(O)CC4)c3)c2c1` [Example 40, 1-(4-(6-isopropoxy-1H-indazol-1-yl)pyridin-2-yl)piperidin-4-ol], the IC50 rises from 229 nM to 378 nM (1.7-fold). The first is the more potent here.

`COC1(C)CN(c2cc(-n3ncc4ccc(OC(C)C)cc43)ccn2)C1` [Example 41, 6-isopropoxy-1-(2-(3-methoxy-3-methylazetidin-1-yl)pyridin-4-yl)-1H-indazole] and `CC(C)Oc1ccc2cnn(-c3ccnc(N4CC[C@H](F)C4)c3)c2c1` [Example 43, (S)-1-(2-(3-fluoropyrrolidin-1-yl)pyridin-4-yl)-6-isopropoxy-1H-indazole] are within 1.5-fold of each other in IC50: 890 nM for the first, 950 nM for the second.

`Cn1cc(-c2ccc3cnn(-c4ccnc(N5CCC(O)CC5)c4)c3c2)cn1` [Example 44, 1-(4-(6-(1-methyl-1H-pyrazol-4-yl)-1H-indazol-1-yl)pyridin-2-yl)piperidin-4-ol] and `Cn1cc(-c2ccc3cnn(-c4ccnc(N5CCCCC5)c4)c3c2)cn1` [Example 45, 6-(1-methyl-1H-pyrazol-4-yl)-1-(2-(pipendin-1-yl)pyridin-4-yl)-1H-indazole] are within 1.5-fold of each other in IC50: 100 nM for the first, 141 nM for the second.

First: CO[C@H]1CN(c2cc(-n3ncc4ccc(-c5cnn(C)c5)cc43)ccn2)C[C@@H]1O [Example 48, (3S,4S)-4-methoxy-1-(4-(6-(1-methyl-1H-pyrazol-4-yl)-1H-indazol-1-yl)pyridin-2-yl)pyrrolidin-3-ol]
Second: C[C@@H]1CN(c2cc(-n3ncc4ccc(-c5cnn(C)c5)cc43)ccn2)CCO1 [Example 49, (R)-2-methyl-4-(4-(6-(1-methyl-1H-pyrazol-4-yl)-1H-indazol-1-yl)pyridin-2-yl)morpholine]
The IC50 of the first is 4.5-fold higher: 399 nM for the first, 89 nM for the second. The second is the more potent here.

`C[C@H]1CN(c2cc(-n3ncc4ccc(-c5cnn(C)c5)cc43)ccn2)CCO1` [Example 50, (S)-2-methyl-4-(4-(6-(1-methyl-1H-pyrazol-4-yl)-1H-indazol-1-yl)pyridin-2-yl)morpholine] was tested, and the IC50 was 141 nM.

Source: US10954240B2, “Compounds inhibiting leucine-rich repeat kinase enzyme activity” (Merck Sharp & Dohme Corp., priority 2014, dated 2021)
